# From US20060099712A1, “Correlation of anti-cancer activity of dyes with redox potentials” (Eastman Kodak Company, priority 2004, published 2006)
# Read-outs that look alike come from different tables or passages of the source.
# Legend:
# [1] = test system: CCL 105 Human Adrenal Cortex Carcinoma; test: Initial in vitro screening, adrenal cortex carcinoma cells; type: cell-based; conditions: cell line 8, CCL 105 human adrenal cortex carcinoma; unit from method; read-out: IC50 (concentration at which 50% of the cells of the culture are killed)
# From the text: (§1) Other publications have shown that some cyanine dyes show anti-cancer activity. See I. Minami, Y. Kozai, H. Nomura and T. Tashiro, Chem. Phar. Bull. 30:3106 (1982); W. M. Anderson, D. L. Delinick, L. Benninger, J. M. Wood, S. T. Smiley and L. B. Chen, Biochemical Pharmacology, 45:691 (1993). […] (See L. G. S. Brooker, L. A. Sweet, Science, 105, (1947) and I. Minami, Y. Kozai, H. Nomura, T. Tashiro, Chem. Pharm. Bull., 30,3106 (1982) on chemotherapeutic investigations of cyanine dyes.) Table I lists initial in vitro screening results in various cell lines and a comparison with Adriamycin, which is a widely used chemotherapeutic agent.
# (§2) Description of Cell Line • 1. CV-1 Normal Monkey Kidney Epithelial (control) • 2. CX-1 Human Colon Carcinoma • 3. Human Breast Carcinoma • 4. Human Pancreatic Carcinoma • 5. Human Bladder Carcinoma • 6. Human Lung Carcinoma • 7. Human Squamous Cell Carcinoma • 8. Human Adrenal Cortex Carcinoma
# [2] = test system: CCL 185 Human Lung Carcinoma; test: Initial in vitro screening, lung carcinoma cells; type: cell-based; conditions: cell line 6, CCL 185 human lung carcinoma; unit from method; read-out: IC50 (concentration at which 50% of the cells of the culture are killed)
# From the text: as §1, §2
# [3] = test system: CRL 1420 Human Pancreatic Carcinoma; test: Initial in vitro screening, pancreatic carcinoma cells; type: cell-based; conditions: cell line 4, CRL 1420 human pancreatic carcinoma; unit from method; read-out: IC50 (concentration at which 50% of the cells of the culture are killed)
# From the text: as §1, §2
# [4] = test system: EJ Human Bladder Carcinoma; test: Initial in vitro screening, bladder carcinoma cells; type: cell-based; conditions: cell line 5, EJ human bladder carcinoma; unit from method; read-out: IC50 (concentration at which 50% of the cells of the culture are killed)
# From the text: as §1, §2
# [5] = test system: CX-1 Human Colon Carcinoma; test: Clonogenic dye screening assay, CX-1 cells (IC50); type: cell-based; conditions: for IC50: Homo sapiens; for CV/CX (selectivity, kill ratio): ratio of IC50 in normal CV-1 line to IC50 in carcinoma CX-1 line; for Selectivity: Table 1, cell line not given, values equal CV/CX of Table II
# Method in brief: (§3)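 Cells seeded 16-30 h ahead (2000 CX-1 or 1000 CV-1 per well), exposed to serially diluted dyes for 3 h at 37 °C, rinsed three times, then grown into colonies. Eight-point curves spanned 0.32-0.0015 μg/mL (CX-1) and 3.2-0.025 μg/mL (CV-1). IC50 is the concentration killing 50% of cells.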
# [6] = test system: SCC 68 Human Squamous Cell Carcinoma; test: Initial in vitro screening, squamous cell carcinoma cells; type: cell-based; conditions: cell line 7, SCC 68 human squamous cell carcinoma; unit from method; read-out: IC50 (concentration at which 50% of the cells of the culture are killed)
# From the text: as §1, §2
# [7] = test system: MCF-7 Human Breast Carcinoma; test: Initial in vitro screening, breast carcinoma cells; type: cell-based; conditions: MCF7; cell line 3, MCF-7 human breast carcinoma; unit from method; read-out: IC50 (concentration at which 50% of the cells of the culture are killed)
# From the text: as §1, §2
# [8] = test system: CV-1 Normal Monkey Kidney Epithelial; test: Clonogenic dye screening assay, CV-1 cells (IC50); type: cell-based, African green monkey; conditions: Primates
# From the text: CX-1 is a cancerous human colon adenocarcinoma cell line. CV-1 is a non-cancerous control, which is a kidney epithelial cell line from an African green monkey. IC50 is the dye concentration at which 50% of the cells are killed. Selectivity or kill ratio is defined as the ratio of […] at IC50 for both CX-1 and CV-1. A ratio with a high number indicates a high selectivity.
# The dyes were screened in two cell lines. CX-1 is a human colon adenocarcinoma cell line. CV-1 is a kidney epithelial cell line from an African green monkey. CV-1 was used as a reference because no normal human epithelial cell line is available for clonogenic assay.
# In the initial screen, dyes were examined at six different concentrations to generate a dose response curve. An IC50 value, the concentration at which 50% of the cells are killed, was then calculated. Initially, a dye concentration of 1.0 μg/mL was the highest examined for the CX-1 cell line and 0.005 μg/mL was the lower limit. The corresponding limits on the CV-1 cell line were […].
# The screening procedure used a response curve that was determined from eight dye concentrations. The upper and lower limits of CX-1 were 0.32 and 0.0015 μg/mL, respectively, and the corresponding revised limits on CV-1 were 3.2 and 0.025 μg/mL. The screening results were reported by assigning an IC50 value to each dye for the CV-1 and CX-1 cell lines. These values will be referred to herein simply as CV and CX. The most desirable result would be to have a dye that was highly toxic to carcinoma cells but nontoxic to ‘normal’ cells. One measure of this type of selectivity is the ratio of the IC50's in the normal cell line to that in the carcinoma line, CV/CX.
# Compounds are screened via an in vitro assay. CV-1 and CX-1 cells are seeded into separate assay plates. The plates are treated with varying concentrations of test compounds, rinsed, and colonies allowed to grow. IC50's are determined and drugs evaluated based on their selectivity and toxicity. Assay Steps: • I. Seeding Cells • II. Weighing • III. Preparation of Solution • IV. Treatment • V. Rinsing and Feeding • VI. Fixing • VII. IC50 Determination I. Seeding Cells
# The cells should be seeded 16-30 hours before treatment. The media for CV-1 cells is DME+5% calf serum +5% Nuserum. The media for CX-1 cells is RPMI/DME (50/50)+5% calf serum +5% Nuserum.
# (c) number of cells based on 2000 CX-1 cells/well and 1000 CV-1 cells/well. NOTE: Always make enough cell suspension for 1 extra plate to allow for volume loss during transfers.
# • (a) For CV-1: 256 ug/ml-256 ul of 1 mg/ml stock +744 ul DMSO • (b) For CX-1: 25.6 ug/ml-100 ul of 256 ug/ml+900 ul DMSO IV. Treatment • 1. Each plate is treated with 4 test compounds, one positive control and one negative control. • 2. Serial dilutions of the compounds are made in the following way:
# 2 multi-well pipetters are used. One is set for 10 ul and one for 200 ul. Each is equipped with 6 tips spaced such that they fit into the 6 rows of a plate. 390 ul of media is added to the first column of each plate. 10 ul each of 4 compound solutions, a positive and a negative control are taken up and put into the first column of wells. The 200 ul pipetter is then placed in the same wells, pipetted up and down 3 times and two 200 ul aliquots are moved to the next column of wells. This column is pipetted up and down 3 times and 400 ul moved to column 3, etc. The final 400 ul excess from column 8 is discarded.
# • 3. Label the plates along the front, each row −1 compound. • 4. Incubate the plates at 37° C. for 3 hrs. V. Rinsing • 1. Prepare several bottles of CX-1 and CV-1 media. • 2. Check for precipitate in first column of each plate and note. • 3. Starting with the plates treated first, rinse several plates at a time by aspirating the treatments and refilling each well with 0.5-1.0 ml of the rinse media. Aspirate and refill 2 more times for a total of 3 rinses. • 4.
# [9] = Dye solubility (water, 5% dextrose/water); type: physicochemical
# From the text: Dye solubility is also a factor, since compounds having low water solubility are difficult or impossible to include in in vivo testing.
# S13 is one of the simplest cyanine dye structures possible (in this nomenclature the S refers to the sulfur, the 1 indicates one carbon on the nitrogen and 3 indicates a 3 methine chain). […] A synthetic challenge will be to enhance the activity/selectivity of this dye and retain its good water solubility. [drawing 23]
# [10] = Clonogenic dye screening assay, CX-1 cells (IC50); type: cell-based, human; conditions: Homo sapiens, CX-1, Table XII column 5; unit from method; read-out: CV (Table XII)
# Method in brief: as §3
# [11] = Electrochemical reduction potential (Er) measurement, SHACV / fast scan CV; type: physicochemical
# From the text: In the practice of this invention the reduction potential of a given dye may be determined in various ways. If available, the published reduction potential may be employed. Reduction potentials for numerous cyanine and merocyanine dyes are available in the literature. (See J. Lenhard, Journal of Imaging Science, vol. 30 pp. 27-35 (1986).) A large amount of data has been generated on the reduction and oxidation potentials of these dyes from their use in photography and related arts where they are employed, inter alia, as spectral sensitizers.
# If a published reduction potential is not available, suitable techniques for measuring reduction potential are available. Accurate electrochemical oxidation and reduction potentials for these organic dyes can be measured by the techniques of fast scan cyclic voltommetry (CV) or second harmonic ac voltommetry (SHACV). SHACV measurements are made as described by Lenhard in the Journal of Imaging Science volume 30, 1986 pp 27-35 using a commercially available (Princeton Applied Research Corp.) potentiostat in conjunction with voltage programmer, a conventional lock-in amplifier, and a low-distortion oscillator. The SHACV method utilizes an ac voltage waveform (of a frequency greater than or equal to 400 hz) that is superimposed on a DC potential ramp. On the other hand, the measurement of the oxidation or reduction potential by the CV method utilizes a (high frequency) triangular voltage waveform. The general procedures for measuring potentials by this method have been described by Wightman in Analytical Chemistry, 1984, vol. 56, pp524 and Journal of Physical Chemistry, 1984, vol. 88, pp3915. The specific application of this technique to the measurement of cyanine dye potentials has been reported by Nomura and Okazaki, Chemistry Letters, 1990, pp2231-2234. Commercial instrumentation especially designed for fast scan (i.e., high frequency) CV is available. It is noteworthy that because of the complicated nature of many of the cyanine dyes, electrochemical reactions, conventional slow scan cyclic voltommetry or polarography methods (as described by R. Large in Photographic Sensitivity, R. Cox, ed., Academic Press, New York, 1973, pp 241-263) provide only approximate values for oxidation and reduction potentials. Errors as large as 0.4 V from the true potential can be obtained by using slow scan CV or electrochemical methods.
# The procedure for measuring the oxidation or reduction potential by the SHACV or fast scan CV method utilizes solutions of acetonitrile (or similar nonaqueous solvent) with added tetrabutylammonium tetrafluoroborate TBABF4 at a concentration of 0.1 M and ca. 5×10^−4 M of the cyanine, oxonol, or merocyanine dye. For measurement of the reduction potential the solution must be deaerated with argon prior to examination. The preferred working electrode is a Pt disk (ca. 0.02 cm^2) that is polished with 1 μm diamond paste, rinsed with water, and dried before each experiment. The reference electrode is a NaCl saturated calomel electrode. The cell and reference electrodes are maintained at 22 C. A value of 40 mV is added to the measured potentials to convert the number to that corresponding to an Ag/AgCl reference electrode. If a solvent other than acetonitrile is used then the measured potential must be referenced to a standard organic redox system such as ferrocene and corrected accordingly.
# SHACV (Second Harmonic Alternating Current Voltametry) measurements are made as described by Lenhard in the Journal of Imaging Science volume 30, 1986 pp 27-35 using a commercially available (Princeton Applied Research Corp.) potentiostat in conjunction with voltage programmer, a conventional lock-in amplifier, and a low-distortion oscillator. The SHACV method utilizes an ac voltage waveform (of a frequency greater than or equal to 400 hz) that is superimposed on a DC potential ramp. […]
# [12] = CX-1, 3 hrs treatment, colonies after 7-10 days, unit from method, read-out: CX (IC50 in the CX-1 cell line)
# [13] = CV-1, 3 hrs treatment, colonies after 7-10 days, unit from method, read-out: CV (IC50 in the CV-1 cell line)
smiles,measurement,setting,value
"CCN1/C(=C/N=N/c2sc3ccccc3[n+]2CC)Sc2ccccc21 [Dye O-1, reference compound]",IC50,[1],0.3 µg/mL
same,IC50,[2],0.8 µg/mL
same,IC50,[3],0.75 µg/mL
same,IC50,[4],0.3 µg/mL
same,IC50,"[5]; CX-1, cell line 2, CX-1, unit from method, read-out: IC50 (concentration at which 50% of the cells of the culture are killed)",0.5 µg/mL
same,IC50,[6],0.3 µg/mL
same,IC50,[7],0.3 µg/mL
same,IC50,"[8]; CV-1, cell line 1, CV-1 normal control, unit from method, read-out: IC50 (concentration at which 50% of the cells of the culture are killed)",7.5 µg/mL
CN1/C(=C/C=C/c2sc3cc4ccccc4cc3[n+]2C)Sc2cc3ccccc3cc21.Cc1ccc(S(=O)(=O)[O-])cc1 [Dye D-140],solubility,[9]; among compounds with enhanced activity,most desirably soluble
same,CX (IC50 in the CX-1 cell line),"[5]; 3 hrs treatment, colonies after 7-10 days, unit from method b117-118",<0.005 µg/mL
same,"CV/CX (selectivity, kill ratio)",[5],60
CCN1/C(=C/C=C/c2sc3ccccc3[n+]2CC)Oc2ccccc21 [Dye D-104],IC50,[5]; [12],0.005 µg/mL
same,IC50,"[5]; CX-1, Table XVI, unsymmetrical dyes, CX-1 cells, read-out: CX",0.005 µg/mL
same,Selectivity,[5],200
same,CV/CX,"[5]; Table XVI, selectivity ratio of IC50 values",200.0
same,"CV/CX (selectivity, kill ratio)",[5],200
same,IC50,[10],0.005 µg/mL
same,IC50,[8]; [13],1 µg/mL
same,IC50,"[8]; CV-1, Table XVI, unsymmetrical dyes, CV-1 cells, read-out: CV",1 µg/mL
CCN1/C(=C/C=C/c2oc3ccc(-c4ccccc4)cc3[n+]2CC)Sc2ccccc21 [Dye D-131],IC50,[5]; [12],< 0.005 µg/mL
same,IC50,[10],< 0.005 µg/mL
same,IC50,[8]; [13],0.3 µg/mL
CC[n+]1c(/C=C/C(C(=O)c2ccccc2)=P(c2ccccc2)(c2ccccc2)c2ccccc2)sc2ccccc21 [Dye D-148],"ER(v), electrochemical reduction potential",[11],−1.15 V
same,IC50,[5]; [12],0.04 µg/mL
same,Selectivity,[5],250
same,"CV/CX (selectivity, kill ratio)",[5],250
same,IC50,[8]; [13],> 10 µg/mL
CN1/C(=C/C=C/c2sc3ccccc3[n+]2C)Sc2ccccc21 [Dye S13],solubility in 5% dextrose/water solutions,[9]; 5% dextrose/water,good solubility
